Measurements: publication PMC4873368 (Cancer research, 2016)

Legend:
MEK = experiment: Brpkp110 cells MEK signaling, Western blot; type: cell-based, mouse; conditions: 8 nM or 200 nM trametinib, 18 hr
A2780 cells = experiment: A2780 cell proliferation screen; type: cell-based; conditions: Homo sapiens, A2780, 72 h, read-out: EC50 A2780
human T cells [1] = experiment: Human T cell proliferation with aAPCs; type: cell-based; conditions: human PBMCs, 7 days
Brpkp110 tumors = conditions: trametinib 1.0 mg/kg oral gavage days 3-13, single intervention
human T cells [2] = experiment: Cytokine rescue of human T cell proliferation from trametinib; type: cell-based; conditions: aAPCs, 200 nM trametinib, 7 days; IL-2 20 U/ml, IL-7 2 ng/ml, IL-15 10 ng/ml, IL-21 100 ng/ml, IL-27 50 ng/ml, ALT-803 35.7 ng/ml
human T cells [3] = experiment: ConA-induced T cell expansion from human PBMCs; type: cell-based; conditions: 168 h, read-out: EC50 T cells
ERK1/2 phosphorylation = experiment: TCR ligation of human CD8 T cells, Western blot p-ERK1/2; type: cell-based; conditions: within 10 minutes post-activation, trametinib 8 nM

CC(=O)Nc1cccc(-n2c(=O)n(C3CC3)c(=O)c3c(Nc4ccc(I)cc4F)n(C)c(=O)c(C)c32)c1 [GSK1120212 (trametinib), trametinib]
Signaling through MEK in Brpkp110 cells (MEK): can be inhibited
EC50 (A2780 cells): > 25000 nM
Proliferation of human T cells in response to aAPC coated with agonistic CD3 and CD28 antibodies (human T cells [1]): Comparable results
Growth of Brpkp110 tumors (Brpkp110 tumors): significantly reduced the growth

IL-21: human IL-21 cytokine
Rescue of human T cell proliferation in the presence of trametinib (human T cells [2]): no significant rescuing effect

CCCS(=O)(=O)Nc1ccc(F)c(C(=O)c2c[nH]c3ncc(-c4ccc(Cl)cc4)cc23)c1F [PLX4032 (vemurafenib), vemurafenib]
EC50 (A2780 cells): > 25000 nM

CN(C)CC[C@H](CSc1ccccc1)Nc1ccc(S(=O)(=O)NC(=O)c2ccc(N3CCN(Cc4ccccc4-c4ccc(Cl)cc4)CC3)cc2)cc1[N+](=O)[O-] [ABT-737]
EC50 (human T cells [3]): 61 nM

CN1CCN(CCOc2cc(OC3CCOCC3)c3c(Nc4c(Cl)ccc5c4OCO5)ncnc3c2)CC1 [AZD0530 (saracatinib), saracatinib]
EC50 (A2780 cells): > 25000 nM

Cn1ncc(Cl)c1-c1cc(C(=O)N[C@H](CN)Cc2ccc(F)c(F)c2)oc1Cl [GSK2141795]
EC50 (human T cells [3]): 96 nM
EC50 (A2780 cells): 2350 nM

CCN(CCCOc1ccc2c(Nc3cc(CC(=O)Nc4cccc(F)c4)n[nH]3)ncnc2c1)CCOP(=O)(O)O [AZD1152 (barasertib), barasertib]
EC50 (A2780 cells): > 25000 nM

IL-15: Recombinant human IL-15 (Novoprotein)
Rescue of TCR-induced ERK1/2 phosphorylation from MEK inhibition (ERK1/2 phosphorylation): can rescue
Rescue of human T cell proliferation in the presence of trametinib (human T cells [2]): able to individually rescue the proliferation

COc1cc(Nc2ncc3c(n2)-c2ccc(Cl)cc2C(c2c(F)cccc2OC)=NC3)ccc1C(=O)O [MLN8237 (alisertib), alisertib]
EC50 (A2780 cells): > 25000 nM

COc1ncc(-c2ccc3nccc(-c4ccnnc4)c3c2)cc1NS(=O)(=O)c1ccc(F)cc1F [GSK2126458 (omipalisib), omipalisib]
EC50 (human T cells [3]): 0.237 nM
EC50 (A2780 cells): 155 nM

Cc1[nH]c2ccccc2c1CCNCc1ccc(/C=C/C(=O)NO)cc1 [LBH589 (panobinostat), panobinostat]
EC50 (human T cells [3]): 25 nM

CN(C)C(=O)c1cc2cnc(Nc3ccc(N4CCNCC4)cn3)nc2n1C1CCCC1 [LEE011]
EC50 (A2780 cells): > 25000 nM

Cn1c(=O)n(-c2ccc(C(C)(C)C#N)cc2)c2c3cc(-c4cnc5ccccc5c4)ccc3ncc21 [BEZ235 (dactolisib), dactolisib]
EC50 (human T cells [3]): 2.4 nM
EC50 (A2780 cells): 21 nM

CC(=O)c1c(C)c2cnc(Nc3ccc(N4CCNCC4)cn3)nc2n(C2CCCC2)c1=O [PD0332991 (palbociclib), palbociclib]
EC50 (human T cells [3]): 110 nM

Cc1cc([C@@H](C)Nc2ccccc2C(=O)O)c2nc(N3CCOCC3)cc(=O)n2c1 [AZD6482]
EC50 (A2780 cells): > 25000 nM

Cn1cnc2c(F)c(Nc3ccc(Br)cc3Cl)c(C(=O)NOCCO)cc21 [AZD6244 (selumetinib), selumetinib]
EC50 (A2780 cells): > 25000 nM

COc1ccc(-c2ccc3c(N4CCOC[C@@H]4C)nc(N4CCOC[C@@H]4C)nc3n2)cc1CO [AZD8055]
EC50 (human T cells [3]): 13.6 nM
EC50 (A2780 cells): 78.3 nM

C[C@]1(O)C[C@@H](c2nc(-c3ccc4ccc(-c5ccccc5)nc4c3)c3c(N)nccn32)C1 [OSI-906 (linsitinib), linsitinib]
EC50 (human T cells [3]): > 25000 nM
EC50 (A2780 cells): > 25000 nM

B1: IL-27: human IL-27 (eBioscience) (protein, UniProt Q8NEV9 29-243; Q14213 21-229, looked up)
Interleukin-27 subunit alpha: FPRPPGRPQLSLQELRREFTVSLHLARKLLSEVRGQAHRFAESHLPGVNLYLLPLGEQLPDVSLTFQAWRRLSDPERLCFISTTLQPFHALLGGLGTQGRWTNMERMQLWAMRLDLRDLQRHLRFQVLAAGFNLPEEEEEEEEEEEEERKGLLPGALGSALQGPAQVSWPQLLSTYRLLHSLELVLSRAVRELLLLSKAGHSVWPLGFPTLSPQP
Interleukin-27 subunit beta: RKGPPAALTLPRVQCRASRYPIAVDCSWTLPPAPNSTSPVSFIATYRLGMAARGHSWPCLQQTPTSTSCTITDVQLFSMAPYVLNVTAVHPWGSSSSFVPFITEHIIKPDPPEGVRLSPLAERQLQVQWEPPGSWPFPEIFSLKYWIRYKRQGAARFHRVGPIEATSFILRAVRPRARYYVQVAAQDLTDYGELSDWSLPATATMSLGK
Rescue of human T cell proliferation in the presence of trametinib (human T cells [2]): no significant rescuing effect

B2: IL-7: mouse IL-7 (Peprotech) (protein, UniProt P10168 26-154, looked up)
Interleukin-7: ECHIKDKEGKAYESVLMISIDELDKMTGTDSNCPNNEPNFFRKHVCDDTKEAAFLNRAARKLKQFLKMNISEEFNVHLLTVSQGTQTLVNCTSKEEKNVKEQKKNDACFLKRLLREIKTCWNKILKGSI
Rescue of human T cell proliferation in the presence of trametinib (human T cells [2]): able to individually rescue the proliferation
